Experimental data as given in PMC10373627, “The Stability of Synthetic Cathinones and the Study of Potential Intake Biomarkers in the Biological Material from a Case of 3-CMC Poisoning” (Journal of Analytical Toxicology, 2023).
Like-named read-outs stand apart in the source and are kept apart here.

How the values were obtained:
[1] = GC-MS identification of 3-CMC and its metabolites in the person's urine sample after derivatization; type: in vivo, human; details: fatal poisoning case; for presence in urine sample: GC-MS after acetylation; for amount present in urine sample: GC-MS after trimethylsilylation
Method: The fluid from the Venflon was acetylated and then analyzed by gas chromatography coupled to mass spectrometry (GC--MS), as described by Synowiec et al. ([8]). Screening analysis was performed using a library developed by Pfleger, Maurer and Weber ([9]), which contains a broad group of compounds, including acetyl or trimethylsilyl derivatives, as well as the authors’ library of SCs ([8]). The analysis was conducted on the day of the autopsy, which was 2 days after the body was discovered.
Following preliminary analytical results indicating the presence of chloromethcathinone (CMC), the liquid from the Venflon further underwent a trimethylsilylation process ([8]) to distinguish the constitutional isomer of CMC.
The same procedure was carried out in the urine sample after SPE, according to the methods described in the authors’ earlier works ([10], [11]).

[2] = Stability study in the authentic autopsy blood sample (HPLC-ESI-MS-MS / HPLC-ESI-MS); type: in vitro ADME, human
Method: (§1) Due to the positive result of the identification analysis of the fluid from the Venflon, the biological material (blood and urine) was properly preserved on the same day. In the case of the urine sample, the pH was first measured using a universal indicator paper (pH = 6.0). The blood sample was preserved in a tube with sodium fluoride (NaF) and potassium oxalate (KOx). The biological material was divided into three parts, each with a volume of 1 mL. The first part was stored at 4°C. The second part was acidified with 1 M HCl: 100 µL of HCl was added to 1 mL of the blood sample to obtain pH <7, and 50 µL of HCl was added to 1 mL of the urine sample to obtain pH = 4.2. The third part of the blood and urine samples was stored at −30°C.
(§2) The 200 µL of blank, calibration and quality control (QC) blood samples and the person’s blood and urine samples were enriched with the addition of methanolic IS 4-CEC-d5. For the blood sample, the final IS concentration was 100 ng/mL, and for the urine sample, it was 1,000 ng/mL. A homogenizing element in the form of a 5-mm-diameter stainless steel bead was added to the Eppendorf Tubes containing the samples. The samples were then deproteinized with frozen acetonitrile (400 µL). The samples were then centrifuged, and the supernatant was evaporated in a stream of nitrogen in a 40°C sand bath. The dry residue was dissolved in 100 µL of a mixture of phase A and B solution in a volume ratio of 60:40 (v/v). Mobile phase A is a mixture of 2 mM ammonium formate and 0.2% formic acid solution in water (v/v), and phase B is a mixture of 2 mM ammonium formate and 0.2% formic acid solution in acetonitrile (v/v).
An Agilent 1200 liquid chromatograph (Agilent) equipped with a binary pump (G1312 A) and an autosampler (G1329 A) was used. The chromatographic separation was performed with a Poroshell 120 EC-C18 column (3.0 × 100 mm, particle size 2.7 μm, Agilent). The column was thermostated at 40°C.
The flow of the mobile phases through the chromatographic column occurred at a programmed gradient of mobile phase composition and flow rate (initially, 95% of phase A and 5% of phase B at a flow rate of 0.5 mL/min; then, the proportion of phases was increased linearly to 90% of phase B at a flow rate of 1.0 mL/min at 10 minutes, and the condition was maintained for 2 min). Subsequently, the proportion of phases was increased linearly to 95% of phase B at a flow rate of 1.0 mL/min at 15 minutes. The volume of the samples injected into the chromatographic column was 15 μL.
A 6410 triple-quadrupole mass spectrometer (Agilent) with an electrospray ionization (ESI) source, operated under a positive mode, was used. The operational parameters of the ESI source were as follows: vaporizing temperature 350 °C, pressure of the nebulizing gas 40 psi, flow of the drying gas 9 L/min and capillary potential 3.5 kV. The multiple reaction monitoring (MRM) was employed. The fragmentation parameters of the analyzed compounds are listed in Table I. For the analysis of the selected potential biomarker, dihydro-3-CMC, the total ion current scanning mode was used in the m/z range of 50–650 amu.
While planning the experiment, the limitation was the amount of the biological material secured during the autopsy, as it came from an authentic case. The reference point (day 1) was the extraction of the biological material stored at 4°C for 24 hours using the procedure described earlier. The deproteination was performed the day after the autopsy was conducted, and the biological material was preserved. Subsequently, all the adequately preserved biological material was examined similarly after 2, 4 and 12 months. These intervals were chosen on the basis of the time that elapses between the autopsy and the intervals on which toxicological examinations are most often ordered to the Toxicology Laboratory of the Department of Forensic Medicine in Krakow by the Prosecutor’s Office. […]

[3] = Stability study in the authentic autopsy urine sample (HPLC-ESI-MS-MS / HPLC-ESI-MS); type: in vitro ADME, human
Method: as §1
as §2, with “acetonitrile (v/v). […]” for “acetonitrile (v/v).”
A 6410 triple-quadrupole mass spectrometer (Agilent) with an electrospray ionization (ESI) source, operated under a positive mode, was used. […] The fragmentation parameters of the analyzed compounds are listed in Table I. For the analysis of the selected potential biomarker, dihydro-3-CMC, the total ion current scanning mode was used in the m/z range of 50–650 amu. […]

[4] = set-up: method as in PMID 30557825; details: cited from earlier work
[5] = set-up: method as in PMID 30557825; details: cited from earlier work; remark: listed apart in the source
[6] = set-up: method as in PMID 30636991; details: cited from earlier work
[7] = set-up: method as in PMID 32407550; details: cited from earlier work
[8] = any given storage conditions (4°C, 4°C + HCl, −30°C), 12 months

CC(=O)NC(C)C(=O)c1cccc(Cl)c1 (centres unmarked) [N-desmethyl-3-CMC-AC]
presence in urine sample [1]: presence

CNC(C)C(=O)c1cccc(Cl)c1 (centres unmarked) [3-CMC, 1-(3-chlorophenyl)-2-(methylamino)propan-1-one]
decomposition on storage of the biological material ([2]; 24 hours of storage at 4°C): significant decomposition
time for which the parent substance could be detected in blood sample ([2]; acidified blood sample, ∼4°C): 4 months
time after which detection in blood sample was still possible ([2]; blood stored at −30°C): ≥ 12 months
detection in blood sample ([2]; blood stored at ∼4°C, after 2 months): no longer detected
3-CMC concentration in blood sample ([2]; storage 4°C + HCl, 2 months since autopsy): 580 ng/mL
3-CMC concentration in blood sample ([2]; storage 4°C + HCl, 4 months since autopsy): 150 ng/mL
3-CMC concentration in blood sample ([2]; storage 4°C + HCl, 12 months since autopsy): 0 ng/mL
3-CMC concentration in blood sample ([2]; storage 4°C, 2 months since autopsy): 0 ng/mL
3-CMC concentration in blood sample ([2]; storage 4°C, 4 months since autopsy): 0 ng/mL
3-CMC concentration in blood sample ([2]; storage 4°C, 12 months since autopsy): 0 ng/mL
3-CMC concentration in blood sample ([2]; storage 4°C, 1 day since autopsy (reference point, 24 hours at 4°C)): 880 ng/mL
3-CMC concentration in blood sample ([2]; storage −30°C, 2 months since autopsy): 2,200 ng/mL
3-CMC concentration in blood sample ([2]; storage −30°C, 4 months since autopsy): 2,500 ng/mL
3-CMC concentration in blood sample ([2]; storage −30°C, 12 months since autopsy): 1,100 ng/mL
3-CMC concentration in blood sample ([2]; stored at −30°C (frozen immediately)): > 2,000 ng/mL
stability in urine sample ([3]; after acidification and freezing, investigated period 12 months): stable throughout the investigated time period
detection in urine sample ([3]; urine pH ∼6, 4°C, after 2 months): impossible to detect
presence in urine sample [1]: presence
amount present in urine sample [1]: trace amounts

CC(=O)NC(C)C(OC(C)=O)c1cccc(Cl)c1 (centres unmarked) [N-desmethyl-dihydro-3-CMC-2AC]
presence in urine sample [1]: presence

CNC(C)C(=O)c1ccc(Cl)cc1 (centres unmarked) [4-CMC, 4-chloromethcathinone]
estimated time for complete degradation in blood ([4]; room temperature): 22 days
estimated time for complete degradation in blood ([4]; stored at 5°C (refrigerated), blank blood enriched with 4-CMC): ~4 months
half-life in blood sample ([4]; stored at 5°C): 24 h
estimated time for complete degradation in blood ([4]; stored at −26°C): 11.6 months
estimated time for complete degradation in urine ([5]; 5°C): 4.4 months
estimated time for complete degradation in urine ([5]; 24°C): 24 days
half-life in urine sample ([5]; urine pH = 5): ~2.5 months
estimated time for complete degradation in urine ([5]; −26°C): > 3 years
decrease in concentration in serum sample ([6]; 3 days of storage at 4°C, compared to original extraction): 65%
concentration in serum sample ([6]; 113 days (∼3.7 months) after the original extraction): below the LOQ
concentration in serum sample ([6]; day 0): 11.5 ng/mL
concentration in serum sample ([6]; day 3, storage at 4°C): 4.0 ng/mL
decrease in concentration in blood sample ([7]; 3 days at 23°C): 54%
decrease in concentration in blood sample ([7]; 30 days of storage at 4°C): 63%
total decay time in blood sample ([7]; refrigerated storage, blood from an authentic case): 90 days
stability in blood sample ([7]; stored at −15°C, entire experiment (90 days)): stable

CNC(C)C(O)c1cccc(Cl)c1 (centres unmarked) [dihydro-3-CMC]
stability in blood sample [2, 8]: high stability
stability in urine sample [3, 8]: high stability
presence in urine sample [1]: mainly
amount present in urine sample [1]: mainly present
